# From US20230107216A1, “PANTETHEINE DERIVATIVES AND USES THEREOF” (Comet Therapeutics, Inc., priority 2018, published 2023)
# Read-outs that look alike come from different tables or passages of the source.
# Legend:
# [1] = system: Venular Endothelial cells (HUVEC) (4H system); test: BioMAP 4H system (IL-4 and histamine); assay type: cell-based, human; conditions: procedure of Example 826; for inhibition at 1 µM / inhibition at 10 µM: Homo sapiens, HUVEC, 24 h; for inhibition at 1 µM / % decrease in MCP-1 / % decrease in Eotaxin-3: 1 uM
# [2] = system: tyrosine hydroxylase positive mesencephalic neurons injured by MPP+; test: Neuroprotective effect on damage induced by MPP+ on culture of mesencephalic neurons; assay type: cell-based; conditions: Rattus norvegicus, Neuron, MPP+ 50 μM, 48h, read-out: % reversion of TH positive neurons (MPTP-mediated degradation of dopaminergic neurons)
# From the text: A female Wistar rat (Janvier; France) of 15 days gestation was terminated by cervical dislocation, the fetuses were removed from the uterus and their brains were harvested and placed in ice-cold medium (Leibovitz's L15 medium, Gibco). Only ventral mesencephalic flexure was used for the cell preparations. The midbrain was dissociated by trypsinization. The reaction was stopped, and the suspension was triturated and centrifuged. The pellet of dissociated cells was resuspended in chemically defined medium consisted of Neurobasal (Gibco), containing B27 supplement (Gibco) and L-glutamine (Gibco), 10 ng/ml (BDNF; Pepro Tech, France) and 1 ng/ml (GDNF; Pepro Tech).
# Viable primary rat embryo mesencephalic cells were counted and seeded on 96-multi-wells plate precoated with poly-L-lysine. Cells were maintained in a humidified incubator at 37° C. in 5% CO2-95% air atmosphere and medium changed on day 2. On day 6, the culture medium was removed and replaced by new media without neurotrophic factors containing the compounds of the present disclosure (50-10 μM) or vehicle (0.1% DMSO). After 1h exposure, injury of mesencephalon neuronal cultures was induced by MPP^+ (50 μM) for further 48h. A mixture of the growth factors GDNF (1 ng/ml) and BDNF (10 ng/ml) were used as reference compound. On day 8, the tyrosine hydroxylase positive neurons were evaluated. Cultures were fixed 30 min at 4° C. with paraformaldehyde in PBS (4%, Thermo Scientific, 28908). After, cells were permeabilized with 0.1% Triton X100 for 30 min, saturated with PBS containing 3% of BSA (bovine serum albumin) and incubated 2h with anti-tyrosine hydroxylase antibody (Sigma, 1:10000; clone TH-2) at 1/10000 in PBS containing 0.5% of BSA. Cells were washed three times with PBS containing 0.5% of BSA and incubated 1h with goat anti mouse antibody coupled with AF488 (Invitrogen A11001) diluted at 1/1000 in PBS containing 0.5% of BSA. Finally, nuclei were stained with DAPI at 1/1000 in PBS containing 0.5% of BSA. After rinsing with PBS, the plate was visualized and examined with Cell Insight HCS (Thermo Scientific) to determine the number of tyrosine hydroxylase positive cells per well.
# The results for each well were expressed as a percentage by setting the density of tyrosine hydroxylase positive cells under control conditions to 100%. Then the result for each condition was reported as mean±SEM from 4 independent cultures.
# A global analysis of the data was performed using a one-way analysis of variance (ANOVA), followed by Fisher's Protected Least Significant Difference when applicable. The level of significance was set to p<0.05.
# [3] = read-out: % decrease in E-Selectin
# [4] = 10 uM, read-out: % decrease in VEGFRII
# [5] = 10 uM, read-out: % decrease in E-Selectin
# [6] = read-out: % decrease in VEGFRII
smiles,measurement,setting,value
"CC(=O)SCCNC(=O)CCNC(=O)[C@H](O)C(C)(C)COC(=O)[C@@H](N)Cc1ccc(O)c(O)c1 [Compound 498, (3R)-3-[(2-[[2-(acetylsulfanyl)ethyl]carbamoyl]ethyl)carbamoyl]-3-hydroxy-2,2-dimethylpropyl (2S)-2-amino-3-(3,4-dihydroxyphenyl)propanoate]",inhibition at 1 µM,[1]; [3],≥ 10%
same,inhibition at 10 µM,[1]; [4],≥ 10%
same,inhibition at 10 µM,[2],≥ 60%
COC(=O)CC(C(C)=O)C(=O)SCCNC(=O)CCNC(=O)[C@H](O)C(C)(C)CO (stereo partly shown) [Compound 410],inhibition at 10 µM,[2],≥ 60%
"COC(=O)CCC(=O)SCCNC(=O)CCNC(=O)[C@H](OC(=O)CN)C(C)(C)CO [Compound 1294, methyl 4-[(2-[3-[(2R)-2-[(2-aminoacetyl)oxy]-4-hydroxy-3,3-dimethylbutanamido]propanamido]ethyl)sulfanyl]-4-oxobutanoate]",% decrease in MCP-1,[1],≥10%
"C[C@@H](O)CC(=O)CC(=O)SCCNC(=O)CCNC(=O)[C@H](O)C(C)(C)CO [Compound 42, (2R)-2,4-dihydroxy-N-[2-[(2-[[(5R)-5-hydroxy-3-oxohexanoyl]sulfanyl]ethyl)carbamoyl]ethyl]-3,3-dimethylbutanamide]",% decrease in Eotaxin-3,[1],≥10%
same,% increase in MCP-1,[1]; 10 uM,≥10%
same,% increase in VEGRII,[1]; 10 uM,≥10%
same,inhibition at 10 µM,[1]; [5],≥ 10%
same,inhibition at 10 µM,[2],≥ 60%
"C[C@@H](O)CC(=O)SCCNC(=O)CCNC(=O)[C@H](O)C(C)(C)CO [Compound 38, S-2-{3-[(R)-2,4-dihydroxy-3,3-dimethylbutyrylamino]propionylamino} ethyl (R)-3-hydroxybutanethioate]",inhibition at 10 µM,[2],≥ 60%
"COC(=O)CC(SCCNC(=O)CCNC(=O)[C@H](O)C(C)(C)COC(C)=O)C(=O)OC (stereo partly drawn) [Compound 149, 1,4-dimethyl 2-[(2-[3-[(2R)-4-(acetyloxy)-2-hydroxy-3,3-dimethylbutanamido]propanamido]ethyl)sulfanyl]butanedioate]",% increase in VEGRII,[1]; 10 uM,≥10%
same,inhibition at 10 µM,[1]; [5],≥ 10%
"CC(C)(CO)[C@@H](O)C(=O)NCCC(=O)NCCSC(=O)CCC(=O)O [Compound 1, (R)-4-((2-(3-(2,4-dihydroxy-3,3-dimethylbutanamido)propanamido)ethyl)thio)-4-oxobutanoic acid]",inhibition at 10 µM,[2],≥ 30%
COC(=O)CCC(=O)SCCNC(=O)CCNC(=O)[C@H](O)C(C)(C)COC(C)=O [Compound 138],inhibition at 1 µM,[1]; [6],≥ 20%
"COC(=O)CCC(=O)SCCNC(=O)CCNC(=O)[C@H](OC(=O)CNC(C)=O)C(C)(C)CO [Compound 1298, methyl 4-[(2-[3-[(2R)-2-[(2-acetamidoacetyl)oxy]-4-hydroxy-3,3-dimethylbutanamido]propanamido]ethyl)sulfanyl]-4-oxobutanoate]",% decrease in Eotaxin-3,[1],≥10%
same,% decrease in MCP-1,[1],≥10%
same,inhibition at 1 µM,[1]; [6],≥ 10%
"CC(C)(CO)[C@@H](O)C(=O)NCCC(=O)NCCSC(=O)[C@@H](N)Cc1ccc(O)c(O)c1 [Compound 371, (2R)—N-[2-[(2-[[(2S)-2-amino-3-(3,4-dihydroxyphenyl)propanoyl]sulfanyl]ethyl)carbamoyl]ethyl]-2,4-dihydroxy-3,3-dimethylbutanamide]",inhibition at 10 µM,[1]; [4],≥ 10%
same,inhibition at 10 µM,[2],≥ 60%
"CCCCCCC(=O)SCCNC(=O)CCNC(=O)[C@H](O)C(C)(C)CO [Compound 372, (2R)—N-(2-[[2-(heptanoylsulfanyl)ethyl]carbamoyl]ethyl)-2,4-dihydroxy-3,3-dimethylbutanamide]",inhibition at 1 µM,[1]; [3],≥ 10%
"CC(C)(COC(=O)OCC[N+](C)(C)C)[C@@H](O)C(=O)NCCC(=O)NCCSC(=O)CCC(=O)O [Compound 116, [2-([[(3R)-3-[[2-([2-[(3-carboxypropanoyl)sulfanyl]ethyl]carbamoyl)ethyl]carbamoyl]-3-hydroxy-2,2-dimethylpropoxy]carbonyl]oxy)ethyl]trimethylazanium]",inhibition at 10 µM,[2],≥ 30%
